Measured values published in US9321742B2, “N1-cyclic amine-N5-substituted biguanide derivatives, methods of preparing the same and pharmaceutical composition comprising the same” (IMMUNOMET THERAPEUTICS INC., priority 2011, dated 2016).
Counter-ions that a name gives are not always drawn.

What was measured:
AMPKα = assay: Measurement of AMPK-activation effect (AMPKα Thr172 phosphorylation immunoassay in MCF7 cells); assay type: cell-based, human; conditions: 24 hours; for AMPK activation effect 10 uM (%) / AMPK activation effect 50 uM (%): relative to untreated cells
Experimental: MCF7 cells derived from human breast cancer cells (commercially available from the Korean Cell Line Bank) were used, and the AMPK (5′-AMP-activated protein kinase alpha)-activation effect of the biguanide derivative was confirmed using an AMPKα immunoassay kit (Invitrogen, Catalog No. KH00651).
MCF7 cells were cultured in a DMEM medium supplemented with 10% fetal bovine serum. Thereafter, the cultured MCF7 cells were put into a 6-well plate with approximately 5×10^5 cells per well and cultured in an incubator supplied with 5% CO2. Culture media were treated with the derivatives synthesized in the examples at contents of 5, 10 and 50 μM, and then cultured for 24 hours. Metformin hydrochloride was used as the control, and the culture media were treated with 0.05, 0.5, 1, 2, 5 and 10 mM metformin hydrochloride, and then tested in the same manner as described in the derivatives synthesized in the examples. Subsequently, the cells were lysed according to a method presented in the operation manual of the AMPKα immunoassay kit, and 20 μg of a cell lysate was then yielded through protein assay. Thereafter, the AMPK activation effect was obtained by determining the degree of phosphorylation of 172nd threonine residue (Thr172) of the AMPKα from the cell lysate according to the method presented in the operation manual of the AMPKα immunoassay kit. […] A curve graph showing AMPK activation according to the concentration of the treated compounds was plotted based on the obtained AMPKα activation results, the concentration (activation concentration 150, AC150) value of the compound whose AMPK activation reached 150% was calculated using a GraphPad Prism 5.0 program, and the degrees of AMPK activation were obtained when concentrations of the treated biguanide derivatives were 10 μM and 50 μM and the metformin hydrochloride was 50 μM.

HCT116 cells = assay: Measurement of effect of inhibiting cancer cell proliferation (MTT); assay type: cell-based; conditions: Homo sapiens; for inhibition at 100 µM: HCT-116, 100 uM, 48 hours, read-out: Cell Growth Inhibition (%) at 100 uM; for GI50: HCT-116, 48 hours
Excerpt: HCT116 cells derived from human colorectal cancer (commercially available from the Korean Cell Line Bank) were used, and the effect of inhibiting cancer cell proliferation of the biguanide derivative was confirmed by measuring the concentration value (cell growth inhibition concentration, GIC50) at which cell growth was inhibited by 50% using a 3-(4,5-dimethylthiazol-2-yl)-2,5-[…] bromide (MTT) reagent.
First, HCT116 cells were put on a 96-well plate and cultured in a DMEM medium containing 10% fetal bovine serum for 16 hours so that the cellcount in each well was approximately 5,000. Subsequently, to obtain the GIC50 value of each compound, culture media were treated with 100 μM, 25 μM, 6.25 μM, 1.56 μM or 0.39 μM of the compound, and then cultured for 48 hours. At this time, some of the compounds were treated with 200 μM instead of 100 μM. Metformin hydrochloride was used as the control, and the culture media were treated with 25, 12.5, 2.5, 0.5, 0.1 mM metformin hydrochloride, and then tested in the same manner as described in the derivatives synthesized in the examples. In order to determine whether the cells survived after treatment with the compound, MTT was added to the culture media which were then cultured for another 3 hours. Formed formazane crystals were dissolved using dimethyl sulfoxide (DMSO), and the absorbance of the resulting solution was measured at 560 nm. After the 48-hours culture, the ratio of the cell count cultured on a well plate not treated with the compound to the living cell count on a well plate treated with the compounds synthesized in the examples was indicated as cell viability (%) according to each treated concentration. A cell viability curve graph was plotted and the concentration (GIC50) value of the compound at which the growth was inhibited by 50% was calculated to confirm the effect of inhibition of cancer cell proliferation. Also, the cell growth viability (%) when the concentration of the treated biguanide derivative and the metformin hydrochloride as the control were 100 uM was shown.

Row | SMILES | melting point [°C] | GI50 (HCT116 cells) [µM] | AMPK activation effect 10 uM (%) (AMPKα) | AMPK activation effect 50 uM (%) (AMPKα) | AC150 (concentration at which AMPK activation reached 150%) (AMPKα) [µM] | inhibition at 100 µM (HCT116 cells) [%]
1 | COc1ccc(CNC(=N)NC(=N)N2CCCCC2)cc1.Cl [Example 28, N1-piperidine-N5-(4-methoxy)benzyl biguanide hydrochloride] | 213 to 214 | > 100 | 258 | 628 | 3.9 | 28.3
2 | Cl.N=C(NC(=N)N1CCCCC1)NC1CCCCC1 [Example 16, N1-piperidine-N5-cyclohexyl biguanide hydrochloride] | 214 to 215 | > 100 | 167 | 486 | 8.0 | 49.1
3 | Cl.N=C(NC(=N)N1CCCC1)NC1CCCC1 [Example 13, N1-pyrrolidine-N5-cyclopentyl biguanide hydrochloride] | 200 to 201 | > 100 | 131 | 375 | 11.9 | 41.9
4 | Cl.N=C(NC(=N)N1CCCCCC1)NC1CCCC1 [Example 15, N1-azepane-N5-cyclopentyl biguanide hydrochloride] | 224 to 225 | > 100 | 174 | 291 | 7.0 | 27.9
5 | Cl.N=C(NCc1c(F)cccc1F)NC(=N)N1CCCCC1 [Example 51, N1-piperidine-N5-(2,6-difluoro)benzyl biguanide hydrochloride] | 229 to 232 | > 100 | 179 | – | 2.1 | 96.8
6 | Cl.N=C(NCc1cccs1)NC(=N)N1CCCCC1 [Example 24, N1-piperidine-N5-(thiophene-2-ylmethyl)biguanide hydrochloride] | 220 to 221 | 93.2 | 64 | 112 | >50 | 51.7
7 | CN1CCN(C(=N)NC(=N)NCc2ccc(OC(F)(F)F)cc2)CC1.Cl [Example 43, N1-(4-methyl)piperazine-N5-(4-trifluoromethoxy)benzyl biguanide hydrochloride] | – | > 100 | 669 | 854 | 6.4 | 97.7
8 | Cl.N=C(NCc1ccccc1)NC(=N)N1CCCCC1 | 156 to 158 | – | – | – | – | –
9 | Cl.N=C(NCc1cccnc1)NC(=N)N1CCCCC1 | 197 to 199 | – | – | – | – | –
10 | CN(C)C(=N)N=C(N)N [Metformin hydrochloride, reference compound] | – | 2850 | – | 130 | 188.3 | 1.8
11 | Cl.N=C(NCc1cccc(F)c1)NC(=N)N1CCCCC1 [Example 29, N1-piperidine-N5-(3-fluoro)bezyl biguanide hydrochloride] | 171 to 172 | – | – | 131 | >50 | –

The remaining molecules from weak to strong by GI50 (HCT116 cells), led by results:

Row | melting point [°C] | GI50 (HCT116 cells) [µM] | SMILES | AMPK activation effect 10 uM (%) (AMPKα) | AMPK activation effect 50 uM (%) (AMPKα) | AC150 (concentration at which AMPK activation reached 150%) (AMPKα) [µM] | inhibition at 100 µM (HCT116 cells) [%]
12 | 182 to 184 | 36.9 | Cl.N=C(NCc1ccc(OC(F)(F)F)cc1)NC(=N)N1CCC1 [Example 40, N1-azetidine-N5-(4-trifluoromethoxy)benzyl biguanide hydrochloride] | 673 | 1076 | 3.9 | 97.8
13 | – | 28 | Cl.N=C(NCc1cccc2ccccc12)NC(=N)N1CCCCC1 [Example 25, N1-piperidine-N5-(naphthalene-1-yl)methyl biguanide hydrochloride] | – | 428 | 8.0 | 96.6
14 | 264 to 266 | 21.3 | Cl.N=C(NCc1ccc(C(F)(F)F)c(F)c1)NC(=N)N1CCCCC1 [Example 46, N1-piperidine-N5-(3-fluoro-4-trifluoromethyl)benzyl biguanide hydrochloride] | 331 | 389 | 1.1 | 101
15 | – | 16.2 | Cl.N=C(NCc1ccc(C(F)(F)F)cc1)NC(=N)N1CCCCC1 [Example 39, N1-piperidine-N5-(4-trifluoromethyl)benzyl biguanide hydrochloride] | 476 | 615 | 0.9 | 78.9
16 | 232 to 235 | 15.2 | Cl.N=C(NCc1ccc(F)c(C(F)(F)F)c1)NC(=N)N1CCCCC1 [Example 44, N1-piperidine-N5-(4-fluoro-3-trifluoromethyl)benzyl biguanide hydrochloride] | 180 | 383 | 10.3 | 32.6
17 | 233 to 235 | 13.4 | Cl.N=C(NCc1ccc(F)c(OC(F)(F)F)c1)NC(=N)N1CCCCC1 [Example 48, N1-piperidine-N5-(4-fluoro-3-trifluoromethoxy)benzyl biguanide hydrochloride] | 244 | – | 18.2 | 96.4
18 | 242 to 244 | 10.3 | Cl.N=C(NCc1ccc(Cl)c(Cl)c1)NC(=N)N1CCCCC1 [Example 55, N1-piperidine-N5-(3,4-dichloro)benzyl biguanide hydrochloride] | 443 | 830 | 0.9 | 97.7
19 | 266 to 268 | 9.2 | Cl.N=C(NCc1ccc(OC(F)(F)F)c(F)c1)NC(=N)N1CCCCC1 [Example 49, N1-piperidine-N5-(3-fluoro-4-trifluoromethoxy)benzyl biguanide hydrochloride] | 158 | 147 | 0.8 | 97
20 | 254 to 256 | 7.4 | Cl.N=C(NCc1ccc(C(F)(F)F)c(Cl)c1)NC(=N)N1CCCCC1 [Example 47, N1-piperidine-N5-(3-chloro-4-trifluoromethyl)benzyl biguanide hydrochloride] | 433 | 384 | 4.4 | 100
21 | 240 to 241 | 5.7 | Cl.N=C(NCc1ccc(OC(F)(F)F)c(Cl)c1)NC(=N)N1CCCCC1 [Example 50, N1-piperidine-N5-(3-chloro-4-trifluoromethoxy)benzyl biguanide hydrochloride] | 259 | – | 8.8 | 97
